{"source": "paper PMC8452096", "about": "(bioRxiv, 2021)", "key": {"[1]": {"conditions": "molar basis, compared with RDV; cited from earlier work"}, "SARS-CoV-2 Fluc": {"tested_on": "SARS-CoV-2 Fluc", "assay": "microbe, parasite or virus in culture", "format": "cell-based", "conditions": "Severe acute respiratory syndrome coronavirus 2, NHBE, in Homo sapiens, 24 h"}, "SARS-CoV-2 nLUC": {"tested_on": "SARS-CoV-2 nLUC", "assay": "microbe, parasite or virus in culture", "format": "cell-based", "conditions": "Severe acute respiratory syndrome coronavirus 2"}, "[2]": {"assay": "Plasma pharmacokinetics after oral administration in uninfected BALB/c mice", "format": "in vivo"}, "WT SARS-CoV-2": {"tested_on": "WT SARS-CoV-2", "format": "cell-based"}}}
{"smiles": "N#C[C@@]1(c2ccc3c(N)ncnn23)O[C@H](CO)[C@@H](O)[C@H]1O", "note": "[GS-441524]", "values": [{"measurement": "efficiency at generating lung triphosphate, less than RDV", "setting": "[1]", "value": "at least 10 fold"}, {"measurement": "EC50", "setting": "SARS-CoV-2 Fluc", "value": 2450, "unit": "nM"}, {"measurement": "EC50", "setting": "SARS-CoV-2 nLUC", "value": 3300, "unit": "nM"}, {"measurement": "maximal plasma concentrations (Cmax) and exposures (AUC0–24h)", "setting": "[2]; GS-441524 after single oral GS-621763, 5 vs 20 mg/kg", "value": "Dose proportional increases"}, {"measurement": "infectious virus production / viral titers", "setting": "WT SARS-CoV-2", "value": "significant and dose-dependent reduction in viral titers"}]}
{"smiles": "CCC(CC)COC(=O)[C@H](C)N[P@](=O)(OC[C@H]1O[C@@](C#N)(c2ccc3c(N)ncnn23)[C@H](O)[C@@H]1O)Oc1ccccc1", "note": "[RDV, remdesivir]", "values": [{"measurement": "EC50", "setting": "SARS-CoV-2 Fluc", "value": 37.1, "unit": "nM"}, {"measurement": "EC50", "setting": "SARS-CoV-2 nLUC", "value": 280, "unit": "nM"}, {"measurement": "infectious virus production / viral titers", "setting": "WT SARS-CoV-2", "value": "significant and dose-dependent reduction in viral titers"}]}
{"smiles": "O=c1nc(NO)ccn1[C@@H]1O[C@H](CO)[C@@H](O)[C@H]1O", "note": "[NHC, β-D-N4-hydroxycytidine]", "values": [{"measurement": "NHC plasma exposures", "setting": "[2]; after oral MPV 30 mg/kg or 100 mg/kg BID, BALB/c mice", "value": "dose proportional increases"}]}
